Test results from publication PMC3472544, “Glycosaminoglycan analogs as a novel anti-inflammatory strategy” (Frontiers in Immunology, 2012).
“Also recorded” adds a separate entry of the source.

Experiments:
CCL5 binding to heparin = biological target: T1, CCL5 binding to heparin (Homo sapiens, UniProt P13501); experiment: Immobilized heparin competition binding assay ([125I]-CCL5 on heparin-Sepharose beads); settings: [125I]-CCL5 0.05 nM, 4 h, read-out: IC50 for the inhibition of CCL5 binding to heparin
T1 sequence (P13501 24-91): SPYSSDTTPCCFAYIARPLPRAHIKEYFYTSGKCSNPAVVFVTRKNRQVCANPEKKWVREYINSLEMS
Experimental: Competition experiments were performed as described elsewhere (Severin et al., [2010]). Briefly, heparin-Sepharose beads (Sepharose beads or binding buffer as a background control) and increasing amounts of antagonist were added to each well of a 96 well filter plate. [^125I]-CCL5, was added last, to reach a final concentration of 0.05 nM. The plates were incubated on a shaker at room temperature for 4 h. Each experiment was performed in triplicate, and the results are given as the mean of the three assays.

[1] = test system: citrated plasma from healthy human blood donors; experiment: Anti-coagulation assay: Activated Partial Thromboplastin Time (APTT)
Experimental: Activated Partial Thromboplastin Time (APTT) assays were performed by GlycoMar. 10 mg/ml stock solutions of NisS, StachS, and MHxS, were prepared using dH2O and stored at −20°C until use. Samples were tested at 1 mg/ml. All further dilutions were in dH2O. Prior to each assay, a calibration curve of heparin ranging from 0 to 10 IU/ml was prepared using 5th International Standard Heparin. (GlycoMar ID:92, batch 97/578, Expiry 21SEP10). Fresh human blood from healthy human blood donors was collected into S-Monovette Coagulation tubes from Sarstedt. Nine parts of freshly drawn venous blood were collected into one part trisodium citrate (0.106 M). Plasma was obtained by centrifugation at 1500 × g for 10 min. Each of the carbohydrate samples was diluted and tested at 1 mg/ml in the first instance. MHxS was subsequently tested at 0.1 mg/ml to be within the time frame of the standard curve. The APTT assay was run on an ACL 9000 Coagulation Analyzer. The coagulation time of HemosIL Normal Control (cat no. 0020003110) was checked. Samples, standards and controls were mixed 1:10 with citrated plasma in a test tube, loaded into the ACL 9000 carousel and analyzed using the extended APTT run program.

[2] = test system: thioglycollate-induced cellular recruitment into the peritoneal cavity; experiment: Thioglycollate-induced peritoneal cellular recruitment; format: in vivo, C3H/Hen mice; settings: thioglycollate i.p.; compound i.p. 30 min before and 24 h later; cells counted at 48 h (Figure 4C, D)
Experimental: CCL5-induced peritoneal recruitment was performed as described (Johnson et al., [2004]). Thioglycollate-induced cellular recruitment was mediated by the administration of 40 mL/kg of 3% thioglycollate i.p. in 7- to 8-week-old female C3H/Hen mice (JANVIER). Sham mice were injected with 40 mL/kg of NaCl (0.9%, LPS free). Saline (vehicle, control group) or Maltohexaose Sulfate at doses ranging from 1 to 0.01 mg/kg diluted in a volume ratio of 10 mL/kg and were administered i.p. 30 min before the thioglycollate stimulus, and 24 h later. An additional group of mice was injected with a single dose of 3 mg/kg dexamethasone 1 h before challenge as a reference control. Mice were sacrificed 48 h post-thioglycollate injection, the peritoneal cavity was washed twice with 5 mL of […] EDTA solution in PDB, pH 7.4. The peritoneal lavage fluid was centrifuged and resuspended in 1 mL of the solution and recruited cells were counted with a cell counter (Beckman-Coulter, ACT5Diff AD32097).
Figure 4 Inhibition of peritoneal cellular recruitment. Cellular recruitment into the peritoneal cavity was induced by CCL5 (A) and (B) and inhibited by different doses of CCL5 binders administered 30 min prior to the CCL5 administration. […]

[3] = test system: paw thickness after SRBC challenge; experiment: Delayed-type hypersensitivity (DTH) model, SRBC; format: in vivo, BALB/c mice
Experimental: Female BALB/c mice were immunized with 2 × 10^6 sheep red blood cells (SRBC) by subcutaneous route (s.c.) at the base of the tail. Five days later mice were challenged with an s.c. injection of 2 × 10^6 SRBC into the softpaw of the left hindpaw. The paw thickness was measured 21 h later and the difference calculated based on values obtained before challenge. MHxS, NisS, and StachS were injected s.c. at a dose of 10 mg/kg, 30 min before and 8 h after challenge. Vehicle was 0.02% BSA diluted in PBS. The reference compound, dexamethasone, was diluted in saline and administered by oral gavage 30 min before challenge. Group sizes were 6 for sham and 8 for all other groups.
Figure 5 Inhibition of delayed-type hypersensitivity. Immunization was performed by s.c. administration of SRBC, followed by a challenge in the hindpaw 5 days later. The persulfated oligosaccharides (10 mg/kg) were administered 30 min prior and 8 h after the challenge. Dexamethasone was used as a positive control, and paw thickness was measured 21 h following the challenge. The statistical differences vs. the control group (mice challenged with SRBC and treated with vehicle for the compounds 0.02% BSA diluted in PBS) are shown whenever present and indicated by ^*P <0.05>; ^***P < 0.001. TEXT PRINTED IN THE PICTURE: dexamethasone: 47% *** | MHxS: 39% *** | NisS: 20% * | StachS: 41% ***

[4] = test system: leukocyte recruitment into the synovial (knee) cavity; experiment: Antigen-induced arthritis (AIA) model, mBSA; format: in vivo, mice; settings: 50 μg s.c. immediately after mBSA; cells counted at 24 h
Experimental: Induction of disease was performed by injection of 10 μg methylated bovine serum albumin (mBSA) as a 10 μL injection into the synovial cavity. Test compounds, at a total dose of 50 μg were injected in a total volume of 200 μL subcutaneously immediately after mBSA administration. Group sizes were 4–6 animals. Total leukocytes (A), neutrophils (B), and mononuclear cells (C) in the synovial cavity were enumerated 24 h after mBSA injection (Sachs et al., [2011]).
Figure 6 Inhibition of antigen induced arthritis. An injection of mBSA into the synovial cavity was used to induce disease. 50 μg of the inhibitors were administered s.c. immediately after the mBSA injection, and the cells in the synovial cavity were enumerated 24 h later. (A) Total cells; (B) […]; (C) mononuclear cells. ^*P < 0.05.

CCR1 (Homo sapiens) = biological target: T2, CCR1 (Homo sapiens); experiment: Equilibrium competition receptor binding assay (SPA), [125I]-CCL5 on CHO/CCR1 membranes; settings: [125I]-CCL5 0.1 nM, CHO/CCR1 membranes, SPA; read-out: IC50 for the inhibition of CCL5 binding to CCR1
T2 construct: expressed in transfected cells; host or cells: CHO
Experimental: (§1) The assays were carried out on membranes from CHO transfectants expressing CCR1 or CCR5, as described previously (Severin et al., [2010]). Briefly, serial dilutions of the compounds were prepared in binding buffer (50 mM TrisHCl, pH 7.2, containing 1 mM CaCl2, 5 mM MgCl2, and 0.5% BSA). Equal volumes of membrane preparation at 80 μg/ml and scintillation proximity assay (SPA) beads were mixed before adding them to a 96 well filter plate, giving a final membrane concentration in the assay of 20 μg/ml. ^125I labeled chemokines were dissolved in binding buffer at a concentration of 0.4 nM. The assay was started by the addition of 25 μL [^125I]-CCL5 to give a concentration of 0.1 nM, in a final assay volume of 100 μL. The plates were incubated for 4 h. Radioactivity was counted with a beta counter for 1 min/well and the data analyzed using Graphpad Prism software. The radioligand was stored at −20°C and was used until the cpm of bound chemokine was ≥ 300 cpm.

CCR1 = biological target: T3, CCR1 (Homo sapiens, UniProt P13501); experiment: as above; settings: relative to Molecule 1
T3 construct: expressed in transfected cells; host or cells: CHO
T3 sequence (P13501 24-91): T1 sequence (P13501 24-91)
Experimental: as §1

[5] = test system: CCL5-induced cellular recruitment into the peritoneal cavity; experiment: CCL5-induced peritoneal cellular recruitment; format: in vivo, mouse; settings: CCL5 binders administered 30 min prior to CCL5 (Figure 4A, B)

Compound | IC50 (CCL5 binding to heparin) [µM] | Anticoagulant activity (heparin-equivalent) ([1]; calibrated against heparin standard curve, samples at 1 mg/ml (MHxS 0.1 mg/ml)) [IU/mg] | anticoagulant potency reduced compared to heparin ([1]; relative to heparin) [fold] | cell recruitment to the peritoneal cavity [2] | reduction of paw thickness compared with dexamethasone ([3]; 10 mg/kg s.c. at −30 min and +8 h) | inhibition of paw thickness, dose-response ([3]; 0.1, 1 and 10 mg/kg at −30 min and +8 h post-challenge, data not shown) | inhibition of paw swelling ([3]; oligosaccharides 10 mg/kg s.c. at −30 min and +8 h, dexamethasone by oral gavage 30 min before challenge, paw thickness at 21 h) [%] | mononuclear cell recruitment into the knee cavity [4] | neutrophil recruitment into the knee cavity [4] | IC50 (CCR1 (Homo sapiens)) [µM] | tighter interaction than Molecule 1 in the CCR1 binding assay (CCR1) [fold] | cell recruitment to the peritoneum [5]
persulfated MHx [MHxS] | 1.27 ± 0.67 | 11.87 ± 3.07 | 12 | enhanced recruitment, albeit moderately | comparable effect | statistically significant inhibitions were shown only for the highest dose | 39 | statistically significant reduction | statistically significant reduction | – | – | –
O=C(CCCCCCCCCCNS(=O)(=O)c1ccc(O)c(C(=O)O)c1)Nc1cc(C(=O)O)c(O)c(S(=O)(=O)O)c1 [Molecule 3, 5-[(11-{[(3-carboxy-4hydroxyphenyl)sulfonyl]amino}undecanoyl)amino]-2-hydroxy-3-sulfobenzoic acid] | – | – | – | – | – | – | – | – | – | 2.5 | 3 | enhancement of cell recruitment; also recorded: no inhibition of recruitment, rather an enhancement at the highest dose
